From patent US20260130847A1, “INGESTIBLE IN VIVO-ASSEMBLING DRUG RELEASE FORMULATIONS AND METHODS” (Massachusetts Institute of Technology, priority 2022, published 2026)

Key:
cellulase = assay: Cellulase activity after acid exposure in vitro; format: biochemical; settings: short incubations in gastric acid
[1] = Encapsulated lumefantrine pharmacokinetics; format: in vivo; settings: pigs, 960 mg lumefantrine
Procedure: All animal studies were performed only after MIT CAC review and approval and under veterinarian supervision. Pigs were dosed with the following treatments via endoscopy: free lumefantrine, lumefantrine encapsulated in alginate hydrogels, and lumefantrine encapsulated in LIFT hydrogels (n=3 each). All pigs were dosed with a total of 960 mg lumefantrine. For free lumefantrine, drug powder was weighed and placed across three gelatin capsules. For hydrogel formulations, lumefantrine powder was suspended in polymer solution (0.5% w/v alginate or 0.5% w/v alginate/5% 4-arm PEG-maleimide), mixed, and administered after crosslinker solution (200 mM CaCl2/10 mM DMSA). Blood was sampled via an installed ear catheter at the indicated time points, and lumefantrine area under the curve was calculated by the trapezoidal rule.
Plasma lumefantrine and desbutyl lumefantrine were separated via high pressure liquid chromatography (HPLC) and quantified with an Agilent 6495A electrospray ionization (ESI) triple quadrupole mass spectrometer (Agilent Technologies, Santa Clara, CA). Samples were introduced to the system with a 5 μL injection volume. Chromatography was performed on an Acquity BEH C18 column (2.1×50 mm, dP 1.8 μm, Waters, Milford, MA), heated to 50° C., with a binary mobile phase composed of 0.1% formic acid in water (v/v, A) and 5% tetrahydrofuran in methanol (v/v, B). […] Nozzle voltage was set to 1500 V and capillary voltage was set to 3500 V. Dynamic multiple reaction-monitoring was used to quantify analytes. Lumefantrine was monitored at transitions 528.16 to 510.00 m/z at 28 collision energy (CE), with a qualifier transition from 528.16 to 383.00 m/z (40 CE). Desbutyl lumefantrine was monitored at 472.1 to 454.1 m/z (20 CE) and qualified from 472.1 to 346 m/z (36 CE). Halofantrine was used as an internal standard and quantified with the 500.18 to 142.10 m/z transition (24 CE) and qualified with the 500.18 to 100.10 m/z transition. […]

lactase = target: T1, lactase (Aspergillus oryzae, UniProt Q2UCU3); assay: Lactase activity after dithiol molecule treatment (ONPG); format: biochemical; settings: 2.5, 5, or 10 mM, 37° C., 20 min
T1 construct: purchased MilliporeSigma G5160
T1 sequence (Q2UCU3 19-1005): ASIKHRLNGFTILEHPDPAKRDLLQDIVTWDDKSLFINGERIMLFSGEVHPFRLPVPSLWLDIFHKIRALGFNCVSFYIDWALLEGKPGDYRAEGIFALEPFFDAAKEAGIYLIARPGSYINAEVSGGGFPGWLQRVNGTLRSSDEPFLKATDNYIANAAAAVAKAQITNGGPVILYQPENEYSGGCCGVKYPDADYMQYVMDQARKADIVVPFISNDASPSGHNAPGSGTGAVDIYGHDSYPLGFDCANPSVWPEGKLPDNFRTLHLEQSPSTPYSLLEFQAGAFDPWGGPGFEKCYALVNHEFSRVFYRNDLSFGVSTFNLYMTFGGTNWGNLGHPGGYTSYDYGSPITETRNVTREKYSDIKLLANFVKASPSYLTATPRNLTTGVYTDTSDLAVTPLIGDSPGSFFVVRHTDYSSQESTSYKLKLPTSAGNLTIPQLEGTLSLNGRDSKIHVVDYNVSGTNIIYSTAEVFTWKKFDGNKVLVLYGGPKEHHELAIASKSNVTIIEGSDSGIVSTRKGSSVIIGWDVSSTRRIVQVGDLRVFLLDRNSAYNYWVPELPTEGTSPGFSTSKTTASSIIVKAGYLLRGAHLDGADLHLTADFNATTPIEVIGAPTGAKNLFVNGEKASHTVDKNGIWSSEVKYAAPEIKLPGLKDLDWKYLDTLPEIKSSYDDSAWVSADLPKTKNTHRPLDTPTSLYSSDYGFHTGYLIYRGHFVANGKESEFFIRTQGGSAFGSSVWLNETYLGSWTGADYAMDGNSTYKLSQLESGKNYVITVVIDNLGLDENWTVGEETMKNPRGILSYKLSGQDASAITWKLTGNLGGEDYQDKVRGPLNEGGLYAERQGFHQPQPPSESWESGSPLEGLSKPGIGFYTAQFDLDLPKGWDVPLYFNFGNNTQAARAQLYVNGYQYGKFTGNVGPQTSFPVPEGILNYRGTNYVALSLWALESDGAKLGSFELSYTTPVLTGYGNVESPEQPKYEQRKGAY
Procedure: Lactase (18 μg, 60 μL) was added to DMSA or PEG-dithiol to a final DMSA/PEG-dithiol concentration of 2.5, 5, or 10 mM. Treatments were incubated at 37° C. for 20 min. Lactase activity was assayed by adding 60 μL of 5 mM ONPG and incubation for 1 min at room temperature. After, 300 μL of 1 M Na2CO3 was added to stop the reaction, and the absorbance of the solution was read at λ=420 nm.

## cellulase
cellulase
  activity of free cellulase: significantly degraded enzyme activity

## CCCCN(CCCC)CC(O)c1cc(Cl)cc2c1-c1ccc(Cl)cc1/C2=C/c1ccc(Cl)cc1 (centres unmarked) [free lumefantrine, Lumefantrine]
[1]; pig, other: via endoscopy, plasma, n=3, trapezoidal rule, read-out: area under the curve (AUC) of released drug
  AUC: 14900 ng·h/mL
[1]; pig, other: via endoscopy, plasma, n=3, read-out: maximum observed drug concentration (Cmax)
  Cmax: 901 ± 197 ng/mL
[1]; n=3
  time of peak plasma drug concentration post-administration: 5 to 7 h

## O=C(O)C(S)C(S)C(=O)O (centres unmarked) [DMSA, dimercaptosuccinic acid]
lactase
  lactase activity after exposure to dithiol compound: attenuated lactase activity
